Tests used:
[1] = Reversal potential and permeability ratio under bi-ionic conditions (voltage ramps); type: biochemical; details: 10 μM; for permeability ratio pK/pNa: Goldman-Hodgkin-Katz equation from reversal potential; for estimated reversal potential: internal 180 mM NaCl, 20 mM KCl, external 20 mM NaCl, 180 mM KCl, n=6
Protocol: This can be determined by measuring the reversal potential under bi-ionic conditions and by applying rapid voltage ramps to measure reversal from open channels. For the determination of permeability ratios, a voltage protocol (detailed below) was applied 100 times to the membrane, while a gradient of ions was set through the membrane (internal solution: 180 mM NaCl, 20 mM KCl, 30 mM HEPES, pH adjusted to 7.4 with NaOH; external solution: 20 mM NaCl, 180 mM KCl, 30 mM HEPES, pH adjusted to 7.4 with NaOH). The protocol started from the holding potential (0 mV), followed by a jump to 100 mV during 100 ms, then a ramp of 1000 ms until −100 mV, maintenance of the voltage at −100 mV for 100 ms before returning to the initial 0 mV holding potential. Calculation of the variance at every isochrone allowed determination of the reversal potential (Vrev) as the voltage at which the variance is minimized. The permeability ratio for
was calculated from the Goldman-Hodgkin-Katz (GHK) equation by assuming that reversal potential is the equilibrium membrane voltage reached by a selective membrane in the presence of that gradient of ions. This leads to the equation 1: […]
where F is the Faraday constant, R is the gas constant, T is the absolute temperature, [K^+]i, and [K^+]e are the internal and external K^+ concentrations, respectively, and [Na^+]i, and [Na^+]e are the internal and external Na^+ concentrations, respectively.
Multiple voltage ramps (N=100) from +100 mV to −100 mV were applied in the presence of 10 μM 6-A-10 (FIG. 18) and 10 μM 6-O-10 (FIG. 20). The reversal potential for each case was determined as that voltage which produces the minimum of variance (FIGS. 19 and 21). In FIGS. 19 and 21, the curves are the variance calculated from experiments in FIGS. 18 and 20, respectively.
In these experiments, the internal concentration of Na^+ in the pipette was 9-fold higher than the external concentration, whereas the K^+ gradient was reversed (internal solution: 180 mM NaCl, 20 mM KCl, 30 mM HEPES, pH 7.4; external solution: 20 mM NaCl, 180 mM KCl, 30 mM HEPES, pH 7.4). If the channels are K^+ selective, the reversal potential will be close to the K^+ Nernst potential, which is 58 mV. In contrast, if the channels are highly Na^+ selective, then the reversal potential will be close to the Na^+ Nernst potential (−58 mV).

[2] = Single-channel patch clamp recordings, inside-out, on giant multilamellar vesicles; type: biochemical; details: 10 μM; for single channel conductance with different ions: Na+ and NMDG+ compared with K+; for single channel activity with different ions: NaCl or NMDG-Cl; for NPO / Translocation rate: 100 mV
Protocol: The liposome preparation was based on protocols employed by Jiang et al., Activation of the archaeal ion channel MthK is exquisitely regulated by temperature, Elife 2020, 9, to reconstitute bacterial ion channels in proteoliposomes (giant multilamellar vesicles; GMLV). The method is adapted to produce plain liposomes. A total of 25 mg of asolectin from soybean (Avanti) was dissolved in 1 mL of chloroform, dried under argon, and kept overnight under vacuum. The dried lipids were resuspended using bath sonication in a resuspension solution (250 mM KCl, 30 mM HEPES, 0.1 mM CaCl2, pH adjusted at 7.6 with KOH) to a final concentration of 15 mg/mL and stored in 30 μL aliquots at −80° C. Aliquots were thawed and placed on a clean glass slide and dried in a desiccator under vacuum at room temperature. The lipids were then rehydrated with 50 μL resuspension solution for more than 2 h to yield the GMLVs.
Direct detection of electrophysiological activity in biological membranes is the gold standard for any putative ion channel. The 6-O-10 and 6-A-10 compounds were tested for ion channel activity by using the patch clamp technique in the inside-out configuration on giant multilamellar vesicles (GMLV) of asolectin.
Single-channel recordings were obtained by patch-clamping GMLV. After seal formation, patches were excised to obtain the inside-out configuration, and then the pipette solution and the bath solution were assumed to be “external” and “internal” solutions, respectively. Pipettes of borosilicate capillary glass 2-000-100 (Drummond Scientific Company) were pulled in a horizontal pipette puller P-97 (Sutter Instrument). Pipette resistance was 5-10 MΩ in any of the solutions tested. Data were acquired with an Axopatch 200A (Axon Instruments) amplifier. Current signals were sampled with a 16-bit A/D converter Axon Digi-data 1550B (Axon Instruments) at a sampling rate of 100 kHz and low-pass filtered at 10 kHz. Data was acquired using Clampex 10.7 (Molecular Devices) acquisition software and analysed with Clampfit 10.7 software (Axon Instruments) and Origin. The temperature in the room was approximately 21° C.
For gap-free experiments, symmetrical (same solution in pipette and bath) KCl solution (200 mM KCl, 30 mM HEPES, pH adjusted to 7.4 with KOH), NaCl solution (200 mM NaCl, 30 mM HEPES, pH adjusted to 7.4 with NaOH) or NMDG-Cl solution (200 mM NMDG, 30 mM HEPES, pH adjusted to 7.4 with HCl) were used for both the internal and external solutions. All the traces were recorded at 100 mV for 5 minutes.
FIGS. 12-14 show single channel activity elicited by 10 μM 6-O-10 in the presence of symmetrical KCl, NaCl and NMDG-Cl solutions, respectively. FIGS. 15-17 show single channel activity elicited by 10 μM 6-A-10 in the presence of symmetrical KCl, NaCl and NMDG-Cl solutions, respectively. Histograms for a total recording time of 900 s are included below every record.
Ion channel activity was measured in the presence of symmetrical 200 mM KCl, NaCl or NMDG-Cl at a concentration of 10 μM for each compound. Three different records of 300 s each were analyzed for every condition shown in (FIGS. 12-17).
To estimate the relative permeabilities of various ions, the product of number of channels (N) and open probability (Po) and the conductance from the amplitude histograms must be taken into consideration (Table 1). Unlike measurements from single ion channels, the present analysis is not constrained to recordings from patches that contain single functional channels. Thus, the possibility that the supramolecular assembly of synthetic channels is dynamic, and that new channels form during recordings with different oligomerization states cannot be ruled out. The only parameter that can be controlled is the concentration of the compounds in solution. All measurements reported here were obtained at 10 μM solution concentration. […]

Compound	permeability ratio pK/pNa [1]	estimated reversal potential [1]	efficiency of K+ transport compared to 6-O-10 [2]	single channel conductance with different ions [2]	single channel activity with different ions ([2]; symmetrical 200 mM KCl)	NPO ([2]; symmetrical 200 mM KCl)	Translocation rate ([2]; symmetrical 200 mM KCl)	NPO ([2]; symmetrical 200 mM NMDG-Cl)	Translocation rate ([2]; symmetrical 200 mM NMDG-Cl)	NPO ([2]; symmetrical 200 mM NaCl)	Translocation rate ([2]; symmetrical 200 mM NaCl)	efficiency of K+ permeation relative to NMDG+ ([2]; from translocation rates)	efficiency of K+ permeation relative to Na+ ([2]; from translocation rates)
CCCCCCCCCCc1ccc2c(c1)OCCOCCOCCOCCOCCO2 [Compound 6-A-10, 18-decyl-2,3,5,6,8,9,11,12,14,15-decahydrobenzo[b][1,4,7,10,13,16]hexaoxacyclooctadecine]	1.4	8.0±0.8 mV	an order of magnitude less efficient	very similar with the different ions	does not vary significantly	0.18 ± 0.02	3.2 ± 0.3 10^6/sec	0.19 ± 0.12	5.0 ± 1.9 10^6/sec	0.16 ± 0.02	4.5 ± 0.7 10^6/sec		
CCCCCCCCCC(=O)c1ccc2c(c1)OCCOCCOCCOCCOCCO2 [Compound 6-O-10, 1-(2,3,5,6,8,9,11,12,14,15-decahydrobenzo[b][1,4,7,10,13,16]hexaoxacyclooctadecin-18-yl)decan-1-one]	1.3	6.5±0.6 mV		only half that observed in the presence of K^+	highest in the presence of K^+ and Na^+ as compared to NMDG^+	0.58 ± 0.16	43.4 ± 5.8 10^6/sec	0.25 ± 0.13	7.1 ± 3.4 10^6/sec	0.56 ± 0.10	11.3 ± 1.1 10^6/sec	7 fold	3.5 fold
